Test results as given in patent US20100317517A1, “HERBICIDE-SAFENER COMBINATION” (BAYER CROPSCIENCE AG, priority 2007, published 2010).
“And” between values parts separate entries of the source, which are not always exact repeats. Equal entries are not always repeated.

Key:
Assay type in all cases: in vivo
Conditions in all cases: no safener
Corn [1] = assay: Compatibility with crop plants, greenhouse, pre-emergence, visual scoring
Excerpt: Seeds or rhizome pieces of monocotyledonous and dicotyledonous weed plants were placed in sandy loam soil in cardboard pots and covered with soil. The active compounds (A) and (B), formulated as wettable powders or emulsion concentrates, were then applied to the surface of the covering soil as aqueous suspensions or emulsions in different dosages at a water application rate of 100 to 800 I/ha (converted).
After the treatment, the pots were placed in a greenhouse and kept under good growth conditions for the weeds. Visual scoring of the plant damage or emergence damage was carried out after the test plants had emerged after a test period of 3 to 4 weeks, in comparison to untreated controls. […] The combinations of 2-iodo-N—[(4-methoxy-6-methyl-1,3,5-triazin-2-yl)carbamoyl]benzenesulfonamide and compounds of the formula (I) mentioned in table A especially with the safeners of the compounds of the formulae S1-1, S1-9, S2-1 and S3-1 have very good synergistic herbicidal activity against harmful plants such as Sinapis alba, Chrysanthemum segetum, Avena sativa, Stellaria media, Echinochloa crus-galli, Lolium multiflorum, Setaria viridis, Abutilon theophrasti, Amaranthus retroflexus and Panicum miliaceum when applied by the pre-emergence method at an application rate of 100 g or less of active substance per hectare. […]

Wheat = assay: Compatibility with crop plants, greenhouse, post-emergence, visual scoring
Experimental: (§1) Seeds or rhizome pieces of monocotyledonous and dicotyledonous weeds were placed in sandy loam soil in plastic pots, covered with soil and cultivated in a greenhouse under good growth conditions. Three weeks after sowing, the test plants were treated at the 2- to 4-leaf stage. The compounds according to the invention, formulated as wettable powders or as emulsion concentrates, were sprayed onto the green parts of the plants in various dosages at a water application rate of 100 to 800 I/ha (converted). After the test plants had been left to stand in the greenhouse for 3 to 4 weeks under optimum growth conditions, the effect of the preparations was scored visually in comparison to untreated controls.
(§2) In further greenhouse trials, seeds of a relatively large number of crop plants and weeds were placed into sandy loam soil and covered with soil. Some of the pots were immediately treated as described in section 1, the others were placed in a greenhouse until the plants had developed two to three true leaves and were then sprayed with various dosages of the herbicide/safener combinations according to the invention, as described in section 2. Four to five weeks after the application and standing time in the greenhouse, it was established by visual scoring that the herbicide/safener combinations tested, i.e. of 2-iodo-N-[(4-methoxy-6-methyl-1,3,5-triazin-2-yl)carbamoyl]benzenesulfonamide and the compounds of the formula (I) listed in table A, did, especially with the safeners of the compounds of the formulae S1-1, S1-6, S1-9, S2-1 and S3-1, benoxacor, furilazole, fluxofenim, not cause any damage to crop plants such as cotton, oilseed rape, sugar cane, sugar beet and also Gramineae crops such as barley, wheat, rye, millet, corn or rice when applied by the pre-emergence method or the post-emergence method.
(§3) The results of selected trials with respect to the crop plant compatibility are shown below in an exemplary manner using as an example safeners improving 2-iodo-N-[(4-methoxy-6-methyl-1,3,5-triazin-2-yl)carbamoyl]benzenesulfonamide (A-0) or its Na^+ salt (A-2) in various crop plants, i.e. wheat, barley and corn.

Corn [2] = assay: as above
Experimental: as §1, §2, §3

Barley = assay: as above
Experimental: as §1, §2, §3

[3] = active compound 12.5 g of ai/ha
[4] = active compound 6.25 g of ai/ha

COc1nc(C)nc(NC(=O)NS(=O)(=O)c2ccccc2I)n1 [Compound A-0, 2-iodo-N-[(4-methoxy-6-methyl-1,3,5-triazin-2-yl)carbamoyl]benzenesulfonamide] was tested, and the “Damage to the crop plant in %” value (Corn [1]; [3]) was 65%, the “Damage to the crop plant in %” value (Corn [1]; active compound 50 g of ai/ha) was 60% and the “Damage to the crop plant in %” value (Wheat; [4]) was 20%. The “Damage to the crop plant in %” value (Wheat; [3]) was 20%, the “Damage to the crop plant in %” value (Corn [2]; [4]) was 20% and the “Damage to the crop plant in %” value (Corn [2]; active compound 25 g of ai/ha) was 50%. For the same compound, the “Damage to the crop plant in %” value (Barley; [4]) was 20% and 10% and the “Damage to the crop plant in %” value (Barley; [3]) was 20%.
